Test [1] concerns the target T1, hTRAAK (Homo sapiens, UniProt Q9NYG8).
T1 construct: expressed in transfected cells; host or cells: tsA-201, transient, pcDNA3.1 vector
T1 sequence (Q9NYG8 1-393): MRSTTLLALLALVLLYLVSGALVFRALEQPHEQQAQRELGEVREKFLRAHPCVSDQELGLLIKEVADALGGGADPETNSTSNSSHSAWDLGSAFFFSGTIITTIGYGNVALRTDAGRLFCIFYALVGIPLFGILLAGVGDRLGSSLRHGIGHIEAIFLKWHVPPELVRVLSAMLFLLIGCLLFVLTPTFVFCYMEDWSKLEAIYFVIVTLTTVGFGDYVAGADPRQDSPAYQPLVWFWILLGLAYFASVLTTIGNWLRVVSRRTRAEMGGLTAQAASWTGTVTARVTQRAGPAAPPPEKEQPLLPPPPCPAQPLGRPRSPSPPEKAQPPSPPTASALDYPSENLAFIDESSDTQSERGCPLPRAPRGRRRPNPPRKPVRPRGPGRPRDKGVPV
The test can be described thus: Whole-cell patch clamp, transiently transfected tsA-201 cells, TRAAK. Format: cell-based. To be noted: Supporting Information Figure S2. Here is the method: Recordings of hTREK1, hTREK1∆N, hTREK2, hTRAAK and […] currents from transiently transfected tsA‐201 cells were performed using methods as described in Veale and Mathie (2016). Briefly, the pcDNA3.1 vector was cloned with the gene of interest, and these vectors and a similar vector containing GFP were incorporated into the tsA201 cells (0.5 μg per well) using the calcium phosphate method. The cells were incubated for 6–12 h at 37°C in […] and 5% carbon dioxide. Cells were then washed using a PBS solution and used for experiments after 24 h.
Currents were recorded using whole‐cell patch‐clamp using an Axopatch 1D amplifier. Cells were placed in a recording chamber filled with an external medium composed of 145 mM, NaCl, 2.5 mM KCl, 3 mM MgCl2, 1 mM CaCl2 and 10 mM HEPES (pH to 7.4, using NaOH). The internal medium used in the glass pipette comprised 150 mM KCl, 3 mM MgCl2, 5 mM (or 0.1 mM) EGTA and 10 mM HEPES (pH to 7.4, using KOH). GI‐530159 was applied by bath perfusion. Currents were recorded and analysed using pCLAMP 10.2 software Microsoft Excel. The voltage protocol used for recording current through K2P channels was as previously described (Veale and Mathie, 2016). For analysis, we measured the current difference between the −80 and −40 mV steps.
(Patch clamp records ionic current or voltage across a cell membrane.)

In test [2] the target is BK (KCa1.1) (Homo sapiens, UniProt Q12791). In words: BL-1249 selectivity (manual patch-clamp and flux assay platforms), BK. Format: cell-based. Particulars: 10 μM.
Sequence of BK (KCa1.1) (Q12791 whole entry, species assumed): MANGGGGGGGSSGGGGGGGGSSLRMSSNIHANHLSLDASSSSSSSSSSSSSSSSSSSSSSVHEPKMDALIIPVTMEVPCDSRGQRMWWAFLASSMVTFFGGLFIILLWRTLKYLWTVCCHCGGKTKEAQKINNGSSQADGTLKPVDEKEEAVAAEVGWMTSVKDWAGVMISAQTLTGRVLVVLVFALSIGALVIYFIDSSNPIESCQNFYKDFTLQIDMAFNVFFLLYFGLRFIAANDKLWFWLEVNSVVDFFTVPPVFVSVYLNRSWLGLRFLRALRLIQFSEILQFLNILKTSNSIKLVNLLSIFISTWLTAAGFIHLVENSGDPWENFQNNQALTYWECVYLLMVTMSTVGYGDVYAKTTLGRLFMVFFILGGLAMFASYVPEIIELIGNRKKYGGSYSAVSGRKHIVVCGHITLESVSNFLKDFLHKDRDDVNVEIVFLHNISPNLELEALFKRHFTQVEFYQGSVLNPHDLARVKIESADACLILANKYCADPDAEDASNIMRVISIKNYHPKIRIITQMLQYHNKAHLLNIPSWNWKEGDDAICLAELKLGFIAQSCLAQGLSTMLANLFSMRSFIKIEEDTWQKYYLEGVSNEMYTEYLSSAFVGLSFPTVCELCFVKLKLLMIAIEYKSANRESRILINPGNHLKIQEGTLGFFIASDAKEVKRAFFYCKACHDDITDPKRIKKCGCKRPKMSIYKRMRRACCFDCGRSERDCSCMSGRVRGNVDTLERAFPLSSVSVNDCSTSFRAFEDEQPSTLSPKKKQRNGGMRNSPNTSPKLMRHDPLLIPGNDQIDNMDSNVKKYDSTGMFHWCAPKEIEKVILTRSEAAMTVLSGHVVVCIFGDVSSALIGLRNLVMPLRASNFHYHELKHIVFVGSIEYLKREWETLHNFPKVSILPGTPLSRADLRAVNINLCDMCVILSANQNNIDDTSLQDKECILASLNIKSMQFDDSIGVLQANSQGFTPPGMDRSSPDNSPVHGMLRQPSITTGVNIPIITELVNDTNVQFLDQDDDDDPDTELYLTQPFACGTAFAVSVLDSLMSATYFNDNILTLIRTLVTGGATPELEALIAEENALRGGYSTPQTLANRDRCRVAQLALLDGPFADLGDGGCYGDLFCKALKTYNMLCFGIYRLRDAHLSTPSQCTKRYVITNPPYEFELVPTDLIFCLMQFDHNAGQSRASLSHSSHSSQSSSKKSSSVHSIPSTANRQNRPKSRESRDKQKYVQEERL
Test [3] addresses Kv7.2 (KCNQ2) (Homo sapiens, UniProt O43526). In words: BL-1249 selectivity (manual patch-clamp and flux assay platforms), Kv7.2. The format is cell-based. To be noted: 10 μM.
Test [4] concerns the target Kv7.3(KCNQ3) (Homo sapiens, UniProt O43525). The test can be described thus: BL-1249 selectivity (manual patch-clamp and flux assay platforms), Kv7.3. Format: cell-based. Particulars: 10 μM.
Test [5] has as its target NaV1.7 (Homo sapiens, UniProt Q15858). The test can be described thus: BL-1249 selectivity (manual patch-clamp and flux assay platforms), NaV1.7. Format: cell-based. Particulars: 10 μM.
For test [6], the system named is Na current in DRG neurons. The test can be described thus: Voltage-clamp recordings from DRG neurons, Na current. Format: cell-based, rat. Here is the method:
Acutely dissociated rat DRG cells were obtained according to a previously described protocol (Passmore, 2005). All animal care and experimental procedures complied with guidelines and were approved by the Pfizer Neusentis Institutional Animal Use and Care Committee. Animal studies are reported in compliance with the ARRIVE guidelines (Kilkenny et al., 2010; McGrath and Lilley, 2015).Cells were plated on coated coverslips (poly‐D‐lysine/laminin, BD Biosciences, San Jose, CA, USA) prior to patching on the same day. Cells were perfused with an extracellular solution containing (in mM): 135 NaCl, 4.7 KCl, 1 CaCl2, 1 MgCl2, 10 HEPES and 10 glucose, pH 7.4, with NaOH (310 mOsmol·L^−1). Pipette solution contained (in mM): 130 KCl, 1 MgCl2, 5 MgATP, 10 HEPES and 5 EGTA, pH adjusted to 7.3 with KOH (290 mOsmol·L^−1). For whole‐cell recordings, currents were filtered at 2 kHz and sampled at 5 kHz. Series resistance was compensated for by up to 80%. For current‐clamp recordings, action potential firing and resting membrane potential (RMP) were recorded from small cells ([…]). GI‐530159 was dissolved in 0.3% DMSO as 10 mM stock and applied in the vicinity of cells using a gravity fed perfusion system (MSC‐200, Bio‐Logic SAS, Claix, France).

Test [7] has as its system TREK1. Also on record: method as in Cao et al., 2010. To be noted: ref Cao et al., 2010; read-out: EC50 in electrophysiological experiments; cited from earlier work.
Test [8] concerns the target TASK3 (K2P9.1) (Homo sapiens, UniProt Q9NPC2). Also on record: method as in Cao et al., 2010. Particulars: ref Cao et al., 2010; cited from earlier work.
Test [9] deals with T2, hTREK1 (Homo sapiens, UniProt O95069).
T2 sequence (O95069 1-426): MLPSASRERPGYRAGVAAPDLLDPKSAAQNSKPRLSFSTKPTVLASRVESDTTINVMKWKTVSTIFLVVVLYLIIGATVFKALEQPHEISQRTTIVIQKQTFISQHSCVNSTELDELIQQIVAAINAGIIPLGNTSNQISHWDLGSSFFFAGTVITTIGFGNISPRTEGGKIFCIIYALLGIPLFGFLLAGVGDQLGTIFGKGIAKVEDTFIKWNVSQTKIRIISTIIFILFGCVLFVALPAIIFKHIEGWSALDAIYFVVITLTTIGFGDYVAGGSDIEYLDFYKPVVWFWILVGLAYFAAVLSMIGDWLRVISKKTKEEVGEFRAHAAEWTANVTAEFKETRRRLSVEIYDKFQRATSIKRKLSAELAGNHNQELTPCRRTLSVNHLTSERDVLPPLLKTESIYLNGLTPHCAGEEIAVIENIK
In words: Manual whole-cell patch clamp, HEK293 cells stably expressing TREK1. Format: cell-based. Also on record: expressed in transfected cells. To be noted: 100 μM; n = 7. Here is the method:
Electrophysiological studies were performed on CHO or HEK293 cells, stably expressing human recombinant TREK1; tsA‐201 cells transiently transfected with human recombinant K2P channels and acutely dissociated rat DRG cells, all at room temperature (22–24°C).
Studies were performed using a conventional patch clamp and Multiclamp 700B and pCLAMP software (Molecular Devices, Sunnyvale, CA, USA). For conventional manual patch clamp, glass coverslips containing HEK293 cells were perfused with an extracellular solution (ECS) containing (in mM): 135 NaCl, 4.7 KCl, 1 CaCl2, 1 MgCl2, 10 HEPES and 10 glucose, pH 7.4, with NaOH (310 mOsmol·L^−1). The patch pipette was filled with (in mM): 130 KCl, 1 MgCl2, 5 MgATP, 10 HEPES and 10 BAPTA, pH adjusted to 7.3 with KOH (290 mOsmol·L^−1).

As usually defined, the EC50 is the concentration that produces a half-maximal response.

Each structure is given as a SMILES string.

Sequence of TASK3 (K2P9.1) (Q9NPC2 whole entry, species assumed): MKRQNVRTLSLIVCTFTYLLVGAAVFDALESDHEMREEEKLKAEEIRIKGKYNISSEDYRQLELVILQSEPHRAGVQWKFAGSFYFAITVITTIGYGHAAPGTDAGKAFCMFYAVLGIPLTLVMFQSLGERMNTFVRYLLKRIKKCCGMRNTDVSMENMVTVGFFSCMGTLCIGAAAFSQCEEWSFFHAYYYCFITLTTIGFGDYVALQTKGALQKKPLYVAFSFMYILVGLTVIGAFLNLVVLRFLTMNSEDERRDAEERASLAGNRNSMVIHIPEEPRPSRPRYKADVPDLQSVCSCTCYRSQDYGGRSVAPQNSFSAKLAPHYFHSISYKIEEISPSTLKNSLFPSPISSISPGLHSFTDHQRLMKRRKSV
Sequence of NaV1.7 (Q15858 whole entry): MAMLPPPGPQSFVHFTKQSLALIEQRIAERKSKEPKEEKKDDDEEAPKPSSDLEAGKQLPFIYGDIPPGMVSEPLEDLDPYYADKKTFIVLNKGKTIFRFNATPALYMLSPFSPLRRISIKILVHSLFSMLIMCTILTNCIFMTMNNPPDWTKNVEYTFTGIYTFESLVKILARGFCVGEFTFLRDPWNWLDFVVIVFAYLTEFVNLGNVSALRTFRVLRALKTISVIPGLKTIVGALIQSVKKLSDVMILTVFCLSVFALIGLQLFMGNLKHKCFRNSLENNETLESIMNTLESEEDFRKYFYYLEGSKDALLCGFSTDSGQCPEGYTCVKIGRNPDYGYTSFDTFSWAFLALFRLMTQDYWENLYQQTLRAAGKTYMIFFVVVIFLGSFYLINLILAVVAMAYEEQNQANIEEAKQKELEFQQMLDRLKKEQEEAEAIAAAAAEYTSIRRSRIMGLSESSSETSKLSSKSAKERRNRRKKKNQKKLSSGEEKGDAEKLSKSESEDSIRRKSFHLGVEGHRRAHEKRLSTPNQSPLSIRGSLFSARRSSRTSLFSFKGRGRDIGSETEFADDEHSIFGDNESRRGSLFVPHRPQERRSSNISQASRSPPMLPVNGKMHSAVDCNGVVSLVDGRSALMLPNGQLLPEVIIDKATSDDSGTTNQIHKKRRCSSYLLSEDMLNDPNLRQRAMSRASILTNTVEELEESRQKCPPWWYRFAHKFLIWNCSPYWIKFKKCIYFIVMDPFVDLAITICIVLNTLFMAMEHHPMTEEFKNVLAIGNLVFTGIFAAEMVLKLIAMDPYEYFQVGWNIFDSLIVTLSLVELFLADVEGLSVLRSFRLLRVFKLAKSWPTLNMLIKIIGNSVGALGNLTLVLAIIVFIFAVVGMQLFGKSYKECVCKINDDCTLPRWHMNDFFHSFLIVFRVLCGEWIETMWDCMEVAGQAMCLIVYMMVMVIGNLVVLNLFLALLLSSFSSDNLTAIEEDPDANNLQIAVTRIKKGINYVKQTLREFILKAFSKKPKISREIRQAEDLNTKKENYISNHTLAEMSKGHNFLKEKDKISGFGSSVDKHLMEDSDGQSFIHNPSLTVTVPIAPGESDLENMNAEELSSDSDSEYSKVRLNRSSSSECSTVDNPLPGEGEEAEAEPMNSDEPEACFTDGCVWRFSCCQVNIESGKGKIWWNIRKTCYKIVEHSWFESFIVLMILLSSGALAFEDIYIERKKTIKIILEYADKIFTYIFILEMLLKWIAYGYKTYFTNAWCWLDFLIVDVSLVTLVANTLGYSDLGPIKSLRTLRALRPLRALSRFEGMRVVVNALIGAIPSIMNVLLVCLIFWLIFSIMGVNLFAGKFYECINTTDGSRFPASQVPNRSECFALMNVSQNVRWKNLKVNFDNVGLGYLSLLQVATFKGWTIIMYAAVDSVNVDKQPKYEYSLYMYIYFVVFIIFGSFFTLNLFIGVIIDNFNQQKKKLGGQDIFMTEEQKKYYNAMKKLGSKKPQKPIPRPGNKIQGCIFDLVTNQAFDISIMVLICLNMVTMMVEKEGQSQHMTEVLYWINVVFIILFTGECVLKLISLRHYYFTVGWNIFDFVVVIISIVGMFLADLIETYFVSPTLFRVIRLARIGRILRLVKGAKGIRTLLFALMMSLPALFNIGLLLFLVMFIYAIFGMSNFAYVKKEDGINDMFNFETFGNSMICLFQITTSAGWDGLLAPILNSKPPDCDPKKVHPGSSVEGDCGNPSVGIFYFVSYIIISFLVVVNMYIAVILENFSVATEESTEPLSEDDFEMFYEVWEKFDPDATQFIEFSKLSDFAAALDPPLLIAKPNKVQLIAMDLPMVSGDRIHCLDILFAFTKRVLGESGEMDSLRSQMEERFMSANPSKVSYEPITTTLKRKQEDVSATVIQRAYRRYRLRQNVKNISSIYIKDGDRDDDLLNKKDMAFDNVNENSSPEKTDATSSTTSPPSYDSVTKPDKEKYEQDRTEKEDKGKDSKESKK

Consider `c1ccc(-c2nnn[nH]2)c(Nc2cccc3c2CCCC3)c1` [BL‐1249, (5,6,7,8‐tetrahydro‐naphthalen‐1‐yl)‐[2‐(1H‐tetrazol‐5‐yl)‐phenyl]‐amine], for which the “effect on TRAAK channels” value in test [1] is “clear enhancement”. In test [2], the “effect on BK (KCa1.1)” value is “significant inhibition”. For the same compound, the “effect on Kv7.2 (KCNQ2)” value in test [3] was “significant inhibition”. For the same compound, in test [4], the “effect on Kv7.3 (KCNQ3)” value is recorded as “significant inhibition”. Moreover, the “effect on NaV1.7” value in [5] is “significant inhibition”. Further, the “block of Na current in DRG neurons” value in test [6] is given as “clear block”. In addition, the EC50 in test [7] was approximately 1000 nM. Also, the “effect on TASK3 (K2P9.1) channels” value in test [8] was “strong activator”. Moreover, the maximal enhanced current in test [9] is reported as 7.2 ± 1.3 nA.
